Measurements reported in US8426419B2, “Tyrosine kinase inhibitors containing a zinc binding moiety” (Curis, Inc., priority 2006, dated 2013).
pIC50: −log10 of the molar value.

How the values were obtained:
[1] = target: T1, full length human Src (Met1-Leu536) (Homo sapiens, UniProt P12931); experiment: HTScan tyrosine kinase assay, Src; format: biochemical
T1 construct: full length human Src (Met1-Leu536); GST (N); purchased Cell Signaling Technologies; host or cells: baculovirus expression system
Method: (§1) The proteins are purified by one-step affinity chromatography using glutathione-agarose. An anti-phosphotyrosine monoclonal antibody, P-Tyr-100, is used to detect phosphorylation of biotinylated substrate peptides (Abl1 and Src, Biotin-Signal Transduction Protein (Tyr160); c-Kit, Biotinylated-KDR (Tyr996); PDGFR-β, Biotinylated-FLT3 (Tyr589)). […] Data are plotted using GraphPad Prism (v4.0a) and IC50's are calculated using a sigmoidal dose response curve fitting algorithm.
(§2) Each assay is setup as follows: 100 μl of 10 mM ATP is added to 1.25 ml 6 mM substrate peptide. […] The enzyme is immediately transferred from −80° C. to ice. The enzyme is allowed to thaw on ice. […] 25 μl of 2× ATP/substrate cocktail is added to 25 μl/well preincubated reaction cocktail/compound. The reaction plate is incubated at room temperature for 30 minutes. […] 100 μl/well primary antibody is added and the mixture is incubated at room temperature for 60 minutes. The plates are again washed three times with 200 μl/well PBS/T. Europium labeled anti-mouse IgG is diluted 1:500 in PBS/T with 1% BSA. 100 μl/well diluted antibody is added and the mixture is incubated at room temperature for 30 minutes. The plate is washed five times with 200 μl/well PBS/T. 100 μl/well DELFIA® Enhancement Solution is added and the mixture is incubated at room temperature for 5 minutes. 615 nm fluorescence emission is detected using an appropriate Time-Resolved Plate Reader.

HDAC = HDAC fluorimetric assay kit (AK-500, Biomol), HeLa nuclear extract; format: biochemical
Method: HDAC inhibitors is screened using an HDAC fluorimetric assay kit (AK-500, Biomol, Plymouth Meeting, Pa.).
Each assay is setup as follows: Defrost all kit components and kept on ice until use. […] Prepare dilutions of Trichostatin A (TSA, positive control) and tested compounds in assay buffer (5× of final concentration). Dilute Fluor de Lys™ Substrate in assay buffer to 100 uM (50 fold=2× final). Dilute Fluor de Lys™ developer concentrate 20-fold (e.g. 50 μl plus 950 μl Assay Buffer) in cold assay buffer. Second, dilute the 0.2 mM Trichostatin A 100-fold in the 1× Developer (e.g. 10 μl in 1 ml; final Trichostatin A concentration in the 1× Developer=2 μM; final concentration after addition to HDAC/Substrate reaction=1 μM). Add Assay buffer, dilute trichostatin A or test inhibitor to appropriate wells of the microtiter plate. Add diluted HeLa extract or other HDAC sample to all wells except for negative controls.

[2] = target: T2, human Abl1 (Pro118-Ser553) (Homo sapiens, UniProt P00519); experiment: HTScan tyrosine kinase assay, Abl1; format: biochemical; details: read-out: ABL IC50
T2 construct: human Abl1 (Pro118-Ser553); GST (N); purchased Cell Signaling Technologies; host or cells: baculovirus expression system
T2 sequence (P00519 118-553): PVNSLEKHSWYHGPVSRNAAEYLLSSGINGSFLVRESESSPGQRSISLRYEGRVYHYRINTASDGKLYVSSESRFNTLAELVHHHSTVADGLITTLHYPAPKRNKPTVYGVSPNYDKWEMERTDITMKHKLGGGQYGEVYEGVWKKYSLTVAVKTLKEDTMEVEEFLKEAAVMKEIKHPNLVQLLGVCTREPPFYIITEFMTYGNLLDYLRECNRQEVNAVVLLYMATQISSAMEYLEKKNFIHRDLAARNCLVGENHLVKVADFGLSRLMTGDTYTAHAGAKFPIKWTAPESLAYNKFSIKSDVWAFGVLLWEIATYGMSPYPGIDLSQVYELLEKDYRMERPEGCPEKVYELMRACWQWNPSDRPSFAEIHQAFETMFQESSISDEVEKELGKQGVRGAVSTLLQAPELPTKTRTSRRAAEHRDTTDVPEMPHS
Method: as §1, §2

[3] = target: T3, human PDGFR-beta (Arg561-Leu1106) (Homo sapiens, UniProt P09619); experiment: HTScan tyrosine kinase assay, PDGFR-beta; format: biochemical; details: read-out: PDGFb IC50
T3 construct: fragment (Arg561-Leu1106); GST (N); His6 (N); thrombin cleavage site (N); purchased Cell Signaling Technologies; host or cells: baculovirus expression system
Method: as §1, §2

[4] = target: T4, human c-Kit (Thr544-Val976) (Homo sapiens, UniProt P10721); experiment: HTScan tyrosine kinase assay, c-Kit; format: biochemical
T4 construct: human c-Kit (Thr544-Val976); GST (N); purchased Cell Signaling Technologies; host or cells: baculovirus expression system
Method: as §1, §2

Lyn = Lyn (Homo sapiens, UniProt P07948); experiment: Lyn assay (Table B); format: biochemical
Lck = Lck (Homo sapiens, UniProt P06239); experiment: Lck assay (Table B); format: biochemical
Lck, sequence (P06239 whole entry, species assumed): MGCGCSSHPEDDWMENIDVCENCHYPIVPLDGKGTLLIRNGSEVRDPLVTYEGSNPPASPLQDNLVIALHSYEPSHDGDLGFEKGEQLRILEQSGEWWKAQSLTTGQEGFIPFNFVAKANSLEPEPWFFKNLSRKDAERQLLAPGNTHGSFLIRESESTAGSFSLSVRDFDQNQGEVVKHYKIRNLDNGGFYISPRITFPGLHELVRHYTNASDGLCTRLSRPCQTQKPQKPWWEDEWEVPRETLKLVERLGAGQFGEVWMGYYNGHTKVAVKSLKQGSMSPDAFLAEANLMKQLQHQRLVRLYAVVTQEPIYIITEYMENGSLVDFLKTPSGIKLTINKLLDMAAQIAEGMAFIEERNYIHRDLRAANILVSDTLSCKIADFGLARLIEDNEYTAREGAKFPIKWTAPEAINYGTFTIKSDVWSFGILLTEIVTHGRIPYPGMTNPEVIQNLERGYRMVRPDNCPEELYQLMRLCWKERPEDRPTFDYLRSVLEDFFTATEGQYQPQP

T3 sequence (P09619 561-1106): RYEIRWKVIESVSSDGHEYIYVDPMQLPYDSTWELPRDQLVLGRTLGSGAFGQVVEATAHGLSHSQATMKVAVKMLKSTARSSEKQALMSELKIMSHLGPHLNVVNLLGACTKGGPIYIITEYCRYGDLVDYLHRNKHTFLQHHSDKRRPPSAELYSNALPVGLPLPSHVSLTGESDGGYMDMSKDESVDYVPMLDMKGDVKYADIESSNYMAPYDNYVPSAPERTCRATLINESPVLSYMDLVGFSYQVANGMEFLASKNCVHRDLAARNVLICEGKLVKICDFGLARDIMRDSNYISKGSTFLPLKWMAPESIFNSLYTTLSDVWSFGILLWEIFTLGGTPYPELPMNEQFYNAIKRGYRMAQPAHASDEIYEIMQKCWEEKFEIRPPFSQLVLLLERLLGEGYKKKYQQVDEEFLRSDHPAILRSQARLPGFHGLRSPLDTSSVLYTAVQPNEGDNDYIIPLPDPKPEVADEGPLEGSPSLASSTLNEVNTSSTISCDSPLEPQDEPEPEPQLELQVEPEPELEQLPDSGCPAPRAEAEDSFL
T4 sequence (P10721 544-976): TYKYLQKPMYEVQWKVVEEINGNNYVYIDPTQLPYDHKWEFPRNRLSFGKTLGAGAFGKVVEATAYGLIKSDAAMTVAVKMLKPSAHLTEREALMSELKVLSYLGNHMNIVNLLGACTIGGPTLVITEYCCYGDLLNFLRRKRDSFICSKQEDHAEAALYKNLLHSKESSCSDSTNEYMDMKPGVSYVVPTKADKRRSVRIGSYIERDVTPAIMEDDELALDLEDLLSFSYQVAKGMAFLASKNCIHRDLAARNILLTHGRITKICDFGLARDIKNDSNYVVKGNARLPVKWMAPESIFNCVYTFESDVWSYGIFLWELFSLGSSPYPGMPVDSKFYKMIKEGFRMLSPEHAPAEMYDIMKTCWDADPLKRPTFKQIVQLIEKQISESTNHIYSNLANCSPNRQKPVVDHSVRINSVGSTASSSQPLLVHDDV
T1 sequence (P12931 whole entry): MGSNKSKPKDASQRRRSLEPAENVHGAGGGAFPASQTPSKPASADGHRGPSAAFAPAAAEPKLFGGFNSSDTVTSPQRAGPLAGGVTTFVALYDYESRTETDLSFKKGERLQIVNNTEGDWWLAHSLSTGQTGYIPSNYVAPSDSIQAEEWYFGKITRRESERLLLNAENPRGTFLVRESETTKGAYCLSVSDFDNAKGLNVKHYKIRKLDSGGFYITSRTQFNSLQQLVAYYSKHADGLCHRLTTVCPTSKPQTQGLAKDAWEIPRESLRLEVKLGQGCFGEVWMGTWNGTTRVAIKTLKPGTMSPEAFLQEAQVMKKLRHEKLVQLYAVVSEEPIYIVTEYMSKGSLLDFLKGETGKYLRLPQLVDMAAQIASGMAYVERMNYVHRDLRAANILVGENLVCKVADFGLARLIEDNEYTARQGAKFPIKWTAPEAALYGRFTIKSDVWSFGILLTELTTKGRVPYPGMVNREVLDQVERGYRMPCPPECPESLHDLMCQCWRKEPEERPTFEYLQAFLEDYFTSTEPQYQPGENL
Lyn, sequence (P07948 whole entry, species assumed): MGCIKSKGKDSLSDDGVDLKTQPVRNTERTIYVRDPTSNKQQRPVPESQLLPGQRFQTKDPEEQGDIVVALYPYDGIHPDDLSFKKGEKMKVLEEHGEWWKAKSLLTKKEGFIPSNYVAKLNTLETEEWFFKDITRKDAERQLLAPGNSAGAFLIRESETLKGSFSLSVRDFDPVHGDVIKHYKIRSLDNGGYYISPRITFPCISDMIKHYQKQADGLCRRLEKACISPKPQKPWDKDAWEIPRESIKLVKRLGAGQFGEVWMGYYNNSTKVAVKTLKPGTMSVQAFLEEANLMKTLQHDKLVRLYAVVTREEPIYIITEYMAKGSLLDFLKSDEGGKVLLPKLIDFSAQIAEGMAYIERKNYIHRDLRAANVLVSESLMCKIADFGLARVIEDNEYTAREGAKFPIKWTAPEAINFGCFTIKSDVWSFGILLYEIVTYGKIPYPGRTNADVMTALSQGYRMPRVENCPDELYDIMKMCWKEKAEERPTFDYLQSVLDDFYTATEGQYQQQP

pIC50 [1] | pIC50 (HDAC) | pIC50 [2] | pIC50 [3] | pIC50 [4] | pIC50 (Lyn) | pIC50 (Lck) | melting point | SMILES
> 7.00 | 5.00 to 6.00 | > 7.00 | > 7.00 | – | – | – | – | Cc1nc(Nc2ncc(C(=O)Nc3c(C)cccc3Cl)s2)cc(N2CCN(CC(=O)NO)CC2)n1 [Compound 1, N-(2-chloro-6-methylphenyl)-2-(6-(4-(2-(hydroxyamino)-2-oxoethyl)piperazin-1-yl)-2-methylpyrimidin-4-ylamino)thiazole-5-carboxamide]
> 7.00 | 5.00 to 6.00 | > 7.00 | > 7.00 | – | – | – | – | Cc1nc(Nc2ncc(C(=O)Nc3c(C)cccc3Cl)s2)cc(N2CCN(CCC(=O)NO)CC2)n1 [Compound 2, N-(2-Chloro-6-methylphenyl)-2-(6-(4-(3-(hydroxyamino)-3-oxopropyl)piperazin-1-yl)-2-methylpyrimidin-4-ylamino)thiazole-5-carboxamide]
> 7.00 | 5.00 to 6.00 | > 7.00 | – | – | – | – | – | Cc1nc(Nc2ncc(C(=O)Nc3c(C)cccc3Cl)s2)cc(N2CCN(CCCC(=O)NO)CC2)n1 [Compound 3, N-(2-chloro-6-methylphenyl)-2-(6-(4-(4-(hydroxyamino)-4-oxobutyl)piperazin-1-yl)-2-methylpyrimidin-4-ylamino)thiazole-5-carboxamide]
> 7.00 | 6.00 to 7.00 | > 7.00 | > 7.00 | – | – | – | – | Cc1nc(Nc2ncc(C(=O)Nc3c(C)cccc3Cl)s2)cc(N2CCN(CCCCC(=O)NO)CC2)n1 [Compound 4, N-(2-chloro-6-methylphenyl)-2-(6-(4-(5-(hydroxyamino)-5-oxopentyl)piperazin-1-yl)-2-methylpyrimidin-4-ylamino)thiazole-5-carboxamide]
> 7.00 | > 7.00 | > 7.00 | > 7.00 | > 7.00 | > 7.00 | – | – | Cc1nc(Nc2ncc(C(=O)Nc3c(C)cccc3Cl)s2)cc(N2CCN(CCCCCC(=O)NO)CC2)n1 [Compound 5, N-(2-chloro-6-methylphenyl)-2-(6-(4-(6-(hydroxyamino)-6-oxohexyl)piperazin-1-yl)-2-methylpyrimidin-4-ylamino)thiazole-5-carboxamide]
> 7.00 | 6.00 to 7.00 | > 7.00 | > 7.00 | > 7.00 | > 7.00 | – | – | Cc1nc(Nc2ncc(C(=O)Nc3c(C)cccc3Cl)s2)cc(N2CCN(CCCCCCC(=O)NO)CC2)n1 [Compound 6, N-(2-chloro-6-methylphenyl)-2-(6-(4-(7-(hydroxyamino)-7-oxoheptyl)piperazin-1-yl)-2-methylpyrimidin-4-ylamino)thiazole-5-carboxamide]
> 7.00 | < 5.00 | > 7.00 | – | – | – | – | – | Cc1nc(NCCNCC(=O)NO)cc(Nc2ncc(C(=O)Nc3c(C)cccc3Cl)s2)n1 [Compound 7, N-(2-chloro-6-methylphenyl)-2-(6-(2-(2-(hydroxyamino)-2-oxoethylamino)ethylamino)-2-methylpyrimidin-4-ylamino)thiazole-5-carboxamide]
> 7.00 | > 7.00 | > 7.00 | > 7.00 | > 7.00 | > 7.00 | > 7.00 | – | Cc1nc(NCCNCCCCCC(=O)NO)cc(Nc2ncc(C(=O)Nc3c(C)cccc3Cl)s2)n1 [Compound 11, N-(2-chloro-6-methylphenyl)-2-(6-(2-(6-(hydroxyamino)-6-oxohexylamino)ethylamino)-2-methylpyrimidin-4-ylamino)thiazole-5-carboxamide]
> 7.00 | > 7.00 | > 7.00 | > 7.00 | > 7.00 | > 7.00 | > 7.00 | – | Cc1nc(NCCCCCC(=O)NO)cc(Nc2ncc(C(=O)Nc3c(C)cccc3Cl)s2)n1 [Compound 23, N-(2-chloro-6-methylphenyl)-2-(6-(6-(hydroxyamino)-6-oxohexylamino)-2-methylpyrimidin-4-ylamino)thiazole-5-carboxamide]
> 7.00 | > 7.00 | > 7.00 | > 7.00 | > 7.00 | > 7.00 | > 7.00 | 150.7 °C (dec.) | Cc1nc(NCCCCCCC(=O)NO)cc(Nc2ncc(C(=O)Nc3c(C)cccc3Cl)s2)n1 [Compound 24, N-(2-chloro-6-methylphenyl)-2-(6-(7-(hydroxyamino)-7-oxoheptylamino)-2-methylpyrimidin-4-ylamino)thiazole-5-carboxamide]
6.00 to 7.00 | < 5.00 | 6.00 to 7.00 | – | – | – | – | – | Cc1nc(N)cc(N(CC(=O)NO)c2ncc(C(=O)Nc3c(C)cccc3Cl)s2)n1 [Compound 30]
